Assay results reported in patent publication US20260198495A1, “BINARY INSECTICIDE COMPOSITION AND USE THEREOF” (SHENYANG SINOCHEM AGROCHEMICALS R & D CO., LTD., priority 2022, published 2026).
≈ marks a conversion by molar mass, not a printed value.

Key:
Assay type in all cases: in vivo
[1] = test system: Aphis gossypii Glover nymphs; test: Joint toxicity of I-72 + nitenpyram, Example 67, Table 67; settings: 48 h
Description: Test target: Aphis gossypii Glover nymphs, a sensitive strain reared indoors.
(§1) Preparation of the pesticide solution: according to different test requirements, the test samples were accurately weighed respectively with an electronic analytical balance. The technical pesticides were dissolved in acetone, and then diluted with 0.1% Tween 80 water into a series of pesticide solutions with a certain concentration gradient according to the experimental design dosage.
(§2) Experimental method: first, cotton leaves with uniform and consistent Aphis gossypii were selected, with about 30-40 insects on each leaf. Then, they were evenly sprayed with the pesticide solution in the order from low dosage to high dosage according to the experimental design, with 1.5 mL for each leaf and 3 replicates for each treatment. In addition, a blank control was set up.
(§3) The treated test materials were placed in an observation room, and the temperature, humidity and illumination of the observation room could be adjusted as needed. The number of dead and live insects was investigated 48 hours later. […] Then, the co-toxicity coefficient of each ratio was calculated using the Sun Y-P method to evaluate the mixing effect (the same as in Example 1).

[2] = test system: Myzus persicae (Sulzer) nymphs; test: Joint toxicity of I-72 + fenvalerate, Example 46, Table 46; settings: in Brassica oleracea, 48 h
Description: (§4) Test target: Myzus persicae (Sulzer) nymphs, a sensitive strain reared indoors.
as §1
as §2, with “cabbage” for “cotton”, “Myzus persicae (Sulzer)” for “Aphis gossypii”, “mL of the solution” for “mL”
as §3

[3] = test system: Liriomyza sativae Blanchard larvae; test: Joint toxicity of I-72 + cyromazine, Example 55, Table 55; settings: in Phaseolus vulgaris
Description: Test target: Liriomyza sativae Blanchard larvae.
as §1
Experimental method: first, kidney bean seedlings with the Liriomyza sativae Blanchard larvae (the larvae had just invaded and formed mines) were selected. Spraying treatments were performed in the order from low dosage to high dosage according to the experimental design, with 3 replicates for each treatment. In addition, a blank control was set up.
as §3, with “After the larvae in the blank control group pupated, the numbers” for “The number”, “were then counted.” for “was investigated 48 hours later.”

[4] = test system: 3rd-instar larvae of Chilo suppressalis (Walker); test: Joint toxicity of I-72 + chlorantraniliprole, Example 57, Table 57; settings: in Oryza sativa, 72 h
Description: (§5) Test target: 3rd-instar larvae of Chilo suppressalis (Walker).
as §1
(§6) Experimental method: first, tender rice stems were selected and dipped in the prepared pesticide solution for 10 s in the order from low dosage to high dosage according to the experimental design. After natural air-drying in the shade, they were placed in a 9-cm-diameter Petri dish with filter paper, and uniform and healthy test insects were introduced, with 10 insects for each treatment and 3 replicates for each treatment. In addition, a blank control (CK) was set up.
as §3, with “72” for “48”, “effect,” for “effect (the same”, “1.” for “1).”

[5] = test system: Myzus persicae (Sulzer) nymphs; test: Joint toxicity of I-72 + cyantraniliprole, Example 59, Table 59; settings: in Brassica oleracea, 48 h
Description: as §4, §1
as §2, with “cabbage” for “cotton”, “Myzus persicae (Sulzer)” for “Aphis gossypii”, “mL of the solution” for “mL”
as §3

[6] = test system: adult Phyllotreta vittuta Fabr.; test: Joint toxicity of I-72 + cyantraniliprole, Example 63, Table 63; settings: 72 h
Description: (§7) Test target: adult Phyllotreta vittuta Fabr.
as §1
(§8) Experimental method: first, uniform and consistent potted cabbage seedlings were selected. Then, uniform spraying was performed with the pesticide solution in the order from low dosage to high dosage according to the experimental design. After air-drying in the shade, adult flea beetles were transferred onto the treated cabbage seedlings, and then glass covers were put on them, with about 30-40 adult flea beetles on each seedling and 3 replicates for each treatment. In addition, a blank control was set up.
as §3, with “72” for “48”

[7] = test system: 2nd-instar larvae of Spodoptera exigua Hübner; test: whole plant or invertebrate; settings: A = compound I-72, B = tetrachlorantraniliprole; cabbage leaf dipping; 72 hours
Description: (§9) Test target: 2nd-instar larvae of Spodoptera exigua Hübner.
as §1
as §6, with “cabbage leaves” for “tender rice stems”, “control” for “control (CK)”
(§10) The treated test materials were placed in an observation room, and the temperature, humidity and illumination of the observation room could be adjusted as needed. The number of dead and live insects was investigated 72 hours later.

[8] = test system: Nilaparvata lugens (Stal) nymphs; test: Joint toxicity of I-72 + imidacloprid, Example 70, Table 70; settings: 72 h
Description: (§11) Test target: Nilaparvata lugens (Stal) nymphs, a sensitive strain reared indoors.
as §1
(§12) Experimental method: the activity of the mixture against the Nilaparvata lugens (Stal) nymphs was determined by adopting the potted-seedling spraying method. First, rice seedlings were planted in culture pots. Uniform spraying was performed with the pesticide solution in the order from low dosage to high dosage according to the experimental design, with 2 mL for each seedling. Then, Nilaparvata lugens nymphs of uniform size were transferred onto the rice seedlings, with 3 replicates for each treatment. In addition, a blank control was set up.
as §3, with “72” for “48”

[9] = test system: Myzus persicae (Sulzer) nymphs; test: whole plant or invertebrate; settings: in Brassica oleracea, 48 h
Description: as §4, §1
as §2, with “cabbage” for “cotton”, “Myzus persicae (Sulzer)” for “Aphis gossypii”, “mL of the solution” for “mL”
(§13) The treated test materials were placed in an observation room, and the temperature, humidity and illumination of the observation room could be adjusted as needed. The number of dead and live insects was investigated 48 hours later.

[10] = test system: Frankliniella occidentalis nymphs; test: whole plant or invertebrate; settings: in Phaseolus vulgaris, foliar, 48 h
Description: Test target: Frankliniella occidentalis nymphs.
as §1
as §6, with “first, kidney bean leaves” for “first, tender rice stems”, “with 20-30” for “with 10”, “control” for “control (CK)”
as §3

[11] = test system: 3rd-instar larvae of Chilo suppressalis (Walker); test: Joint toxicity of I-72 + methoxyfenozide, Example 53, Table 53; settings: in Oryza sativa, 72 h
Description: as §5, §1
as §6, with “control” for “control (CK)”
as §3, with “72” for “48”

[12] = test system: Lipaphis erysimi (Kaltenbach); test: Joint toxicity of I-72 + pyrethrin, Example 47, Table 47; settings: A = compound I-72, B = pyrethrin; cabbage leaf spraying; 48 hours
Description: Test target: Lipaphis erysimi (Kaltenbach).
as §1
as §2, with “cabbage” for “cotton”, “Lipaphis erysimi (Kaltenbach)” for “Aphis gossypii”, “mL of the solution” for “mL”
as §3

[13] = test system: adult Phyllotreta vittuta Fabr.; test: Joint toxicity of I-72 + acetamiprid, Example 65, Table 65; settings: 72 h
Description: as §7, §1, §8, §10

[14] = test system: Thrips flavus Schrank nymphs; test: Joint toxicity of I-72 + tolfenpyrad, Example 62, Table 62; settings: in Solanum melongena, 48 h
Description: Test target: Thrips flavus Schrank nymphs.
as §1
Experimental method: first, eggplant seedlings with Thrips flavus Schrank were selected, and the base number was counted. Then, uniform spraying was performed with the pesticide solution in the order from low to high doses according to the experimental design, with 2 mL for each seedling and 3 replicates for each treatment. In addition, a blank control was set up.
as §3

[15] = test system: Aphis craccivora nymphs; test: whole plant or invertebrate; settings: in Vicia faba, 48 h
Description: Test target: Aphis craccivora nymphs, a sensitive strain reared indoors.
as §1
as §2, with “broad bean seedlings” for “cotton leaves”, “craccivora” for “gossypii”, “seedling.” for “leaf.”, “mL of the solution” for “mL”
as §13

[16] = test system: 3rd-instar larvae of Yponomeuta evonymallus (Linnaeus); test: Joint toxicity of I-72 + thiamethoxam, Example 66, Table 66; settings: A = compound I-72, B = thiamethoxam; leaf dipping; 72 hours
Description: Test target: 3rd-instar larvae of Yponomeuta evonymallus (Linnaeus).
as §1
as §6, with “Hylotelephium spectabile leaves” for “tender rice stems”, “control” for “control (CK)”
as §10

[17] = test system: Nilaparvata lugens (Stal) nymphs; test: Joint toxicity of I-72 + buprofezin, Example 52, Table 52; settings: 72 h
Description: as §11, §1, §12
as §3, with “72” for “48”, “effect,” for “effect (the same”, “1.” for “1).”

[18] = test system: 3-instar larvae of Ostrinia furnacnlis Guenee; test: Joint toxicity of I-72 + flubendiamide, Example 61, Table 61; settings: in Zea mays, 72 h
Description: Test target: 3-instar larvae of Ostrinia furnacnlis Guenee.
as §1
as §6, with “corn” for “rice”, “control” for “control (CK)”
as §3, with “72” for “48”

[19] = test system: 2nd-instar larvae of Plutella xylostella; test: Joint toxicity of I-72 + tetraniliprole, Example 58, Table 58; settings: A = compound I-72, B = tetraniliprole; cabbage leaf dipping; 72 hours
Description: Test target: 2nd-instar larvae of Plutella xylostella.
as §1
as §6, with “cabbage leaves” for “tender rice stems”, “control” for “control (CK)”
as §3, with “72” for “48”

[20] = test system: 2nd-instar larvae of Spodoptera exigua Hübner; test: Joint toxicity of I-72 + lufenuron, Example 54, Table 54; settings: in Brassica oleracea, foliar, 72 h
Description: as §9, §1
as §6, with “cabbage leaves” for “tender rice stems”, “control” for “control (CK)”
as §3, with “72” for “48”

[21] = test system: 2nd-instar larvae of Mythimna separata; test: Joint toxicity of I-72 + hexaflumuron, Example 56, Table 56; settings: in Zea mays, foliar, 72 h
Description: Test target: 2nd-instar larvae of Mythimna separata.
as §1
as §6, with “corn leaves” for “tender rice stems”, “control” for “control (CK)”
as §3, with “72” for “48”

CCN(Cc1ccc(Cl)nc1)/C(=C/[N+](=O)[O-])NC [nitenpyram]
LC50 [1]: 0.384 µg/mL

CC(C)C(C(=O)OC(C#N)c1cccc(Oc2ccccc2)c1)c1ccc(Cl)cc1 (stereo not drawn) [fenvalerate]
LC50 [2]: 34.4 µg/mL

Nc1nc(N)nc(NC2CC2)n1 [cyromazine]
LC50 [3]: 5.06 µg/mL

CNC(=O)c1cc(Cl)cc(C)c1NC(=O)c1cc(Br)nn1-c1ncccc1Cl [chlorantraniliprole]
LC50 [4]: 1.2 µg/mL

CNC(=O)c1cc(C#N)cc(C)c1NC(=O)c1cc(Br)nn1-c1ncccc1Cl [cyantraniliprole]
LC50 [5]: 1.18 µg/mL
LC50 [6]: 36.2 µg/mL

CNC(=O)c1cc(Cl)cc(Cl)c1NC(=O)c1cc(Br)nn1-c1ncc(Cl)cc1Cl [tetrachlorantraniliprole]
LC50 [7]: 0.6491 µg/mL (≈ 1.21 µM)

O=[N+]([O-])NC1=NCCN1Cc1ccc(Cl)nc1 [imidacloprid]
LC50 [8]: 4.9 µg/mL

CN/C(=N\[N+](=O)[O-])NCc1cnc(Cl)s1 [clothianidin]
LC50 [9]: 0.513 µg/mL (≈ 2.05 µM)

CN/C(=N/CC1CCOC1)N[N+](=O)[O-] (stereo not drawn) [dinotefuran]
LC50 [10]: 75.3 µg/mL (≈ 372 µM)

COc1cccc(C(=O)NN(C(=O)c2cc(C)cc(C)c2)C(C)(C)C)c1C [methoxyfenozide]
LC50 [11]: 8.95 µg/mL

pyrethrin
LC50 [12]: 55.3268 µg/mL

C/C(=N\C#N)N(C)Cc1ccc(Cl)nc1 [acetamiprid]
LC50 [13]: 7.92 µg/mL

CCc1nn(C)c(C(=O)NCc2ccc(Oc3ccc(C)cc3)cc2)c1Cl [tolfenpyrad]
LC50 [14]: 28.6 µg/mL

CC(c1ccc(C(F)(F)F)nc1)S(C)(=O)=NC#N (stereo not drawn) [sulfoxaflor]
LC50 [15]: 0.197 µg/mL (≈ 0.709 µM)

CN1COCN(Cc2cnc(Cl)s2)/C1=N\[N+](=O)[O-] [thiamethoxam]
LC50 [16]: 358.9351 µg/mL

CC(C)N1C(=O)N(c2ccccc2)CS/C1=N\C(C)(C)C [buprofezin]
LC50 [17]: 1.98 µg/mL

Cc1cc(C(F)(C(F)(F)F)C(F)(F)F)ccc1NC(=O)c1cccc(I)c1C(=O)NC(C)(C)CS(C)(=O)=O [flubendiamide]
LC50 [18]: 1.02 µg/mL

CNC(=O)c1cc(C#N)cc(C)c1NC(=O)c1cc(Cn2nnc(C(F)(F)F)n2)nn1-c1ncccc1Cl [tetraniliprole]
LC50 [19]: 0.0810 µg/mL

O=C(NC(=O)c1c(F)cccc1F)Nc1cc(Cl)c(OC(F)(F)C(F)C(F)(F)F)cc1Cl (stereo not drawn) [lufenuron]
LC50 [20]: 12.9 µg/mL

O=C(NC(=O)c1c(F)cccc1F)Nc1cc(Cl)c(OC(F)(F)C(F)F)c(Cl)c1 [hexaflumuron]
LC50 [21]: 5.57 µg/mL
